Entries after “also recorded” stand apart in the source; their conditions may differ. Where two headings read alike, the source gives them in different places.
How the values were obtained:
[1] = cited from earlier work
[2] = Hygroscopicity profile: controlled humidity chambers for two weeks, then Karl Fisher analysis of water content; format: physicochemical; details: compared with azithromycin monohydrate over a range of relative humidity (FIG. 1); monohydrate data from EP 298,650
Text: Hygroscopicity profiles were obtained by maintaining samples in controlled humidity chambers for a period of two weeks, followed by Karl Fisher analysis of water content.

Substance	hygroscopicity ([1]; according to EP 298,650)	also measured
9-deoxo-9a-aza-9a-methyl-9a-homoerythromycin A		hygroscopicity ([1]; according to CN 1,093,370): less hygroscopic than the dehydrate described in EP 298,650
9-deoxo-9a-aza-9a-methyl-9a-homoerythromycin A [ethanolate of azithromycin]		hygroscopicity [2]: less hygroscopic than azithromycin monohydrate; also recorded: less hygroscopic than the prior art monohydrate
9-deoxo-9a-aza-9a-methyl-9a-homoerythromycin A [dehydrate form of azithromycin]	less hygroscopic than the previously known monohydrate	
9-deoxo-9a-aza-9a-methyl-9a-homoerythromycin A [monohydrate]	hygroscopic	
